Assay results taken from US10392419B2, “Modified cyclic dinucleotide compounds” (Boehringer Ingelheim International GmbH, priority 2017, dated 2019).

Legend:
[1] = biological target: Human STING (hSTING, residues 155-341, wild-type sequence) (Homo sapiens, UniProt Q86WV6, H232R); assay: hSTING binding by differential scanning fluorimetry (DSF); details: for binding to human STING compared to the other diastereomer(s) of the same Example / thermal shift compared to ribose Example 5/Compound 23 in WO 2016/145102: in words
Sequence of Human STING (hSTING, residues 155-341, wild-type sequence) (Q86WV6 155-341 H232R limits assumed): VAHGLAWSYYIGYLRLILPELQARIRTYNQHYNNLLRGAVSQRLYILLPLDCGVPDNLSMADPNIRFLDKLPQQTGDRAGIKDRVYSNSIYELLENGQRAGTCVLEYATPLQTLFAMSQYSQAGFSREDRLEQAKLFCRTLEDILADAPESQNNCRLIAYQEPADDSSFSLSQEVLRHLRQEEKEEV
Method: Differential Scanning Fluorimetry (DSF)
Assay buffer: 20 mM Tris, 150 mM NaCl pH7.5
Target Protein: Human STING (hSTING, residues 155-341, wild-type sequence with N-terminal His8-tag and TEV-cleavage site, MW: 23601.5 Da)
Protein stock solution: c=309 μM stock solution in assay buffer
Final Assay concentrations of test compounds: 100 μM, 3 μM target protein, “5×” SYPR Orange
1) Compound stock solutions and dilutions thereof were prepared in assay buffer
2) 5 μl fluorescent dye stock solution (5000×SYPRO Orange) was mixed with 50 μl target protein (309 μM) and 945 μl buffer.
3) 2 μl of this protein-dye-mixture (25×SYPRO Orange and 15 μM Protein) was added to 8 μl compound solution.
4) Certain well positions were used as negative control.
5) The plates were prepared for duplicate measurement and centrifuged for 2 min at 1000 g.
6) In the measurement, 160 cycles of 0.5° C. were used (temperature ramp 15 s/cycle, 15° C. to 95° C.).
Data analysis: The dissociation curves were processed in Bio-Rad CFX Manager. Peak type was set to “negative”. In the case of Examples 1.1, 2.1, 3.1 and 4.1, at least two Tm measurements were averaged.

[2] = biological target: T1, human STING protein in THP1-Blue ISG cells (Homo sapiens, UniProt Q86WV6, G230A/H232R/R293Q/R71H); assay: In vitro cytokine induction, THP1-Blue ISG reporter cell assay (IRF-inducible SEAP); format: cell-based; details: 24 hours incubation, SEAP OD at 620 nm
T1 construct: endogenous STING levels from the parental, unmodified THP1-Blue ISG cell lines; endogenous in cells; host or cells: THP1-Blue ISG cells
T1 sequence (Q86WV6 whole entry R71H/G230A/H232R/R293Q): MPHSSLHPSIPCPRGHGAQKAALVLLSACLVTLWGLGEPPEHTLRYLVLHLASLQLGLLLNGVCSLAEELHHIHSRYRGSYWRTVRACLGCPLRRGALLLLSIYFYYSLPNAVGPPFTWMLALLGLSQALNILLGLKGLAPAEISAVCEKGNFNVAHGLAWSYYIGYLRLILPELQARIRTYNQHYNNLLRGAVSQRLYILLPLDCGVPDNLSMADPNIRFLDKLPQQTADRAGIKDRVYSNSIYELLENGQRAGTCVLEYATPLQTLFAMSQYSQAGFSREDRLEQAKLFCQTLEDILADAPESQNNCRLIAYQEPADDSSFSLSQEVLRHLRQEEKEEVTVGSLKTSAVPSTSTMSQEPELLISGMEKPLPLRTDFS
Text: In Vitro Cytokine Induction
Activation of the STING protein expressed in THP1 cells results in an increase of interferon production. By the stable integration of an interferon regulatory factor (IRF)-inducible SEAP (secreted embryonic alkaline phosphatase) reporter construct the functional interferon signaling pathway can be monitored. Using Invivogen's QUANTI-Blue™ colorimetric enzyme assay and a suitable optical density (OD) reader the activity of SEAP can be detected and quantified. This technique could be used to characterize pharmacological modification of the STING protein.
Measurements of SEAP activity were performed in THP1-Blue ISG cells stably expressing the human STING protein and the IRF-inducible SEAP reporter construct. Cells were cultivated for expansion in RPMI1640 medium with 10% fetal calf serum, 50 μg/ml Penicillin-Streptomycin, 100 μg/ml Zeocin, and 100 μg/ml Normocin in a 37°, 95% humidity and 5% CO2 incubator. Assay-ready cells were stored as frozen stocks.
In preparation for the assay, the cells were thawed in Zeocin-/Normocin-free medium and were distributed into the assay plates with a density of 15000 cells/15 μL per well. Compounds were prepared by an 8- or 16-point serial dilution in 50% aqueous DMSO and a final dilution step into medium to ensure a final DMSO concentration of 0.5% in the assay. 5 μL of diluted compounds plus 5 μL medium were added to the plates, followed by a 24 hours incubation at 37° C.
At the day of the assay, 75 μl per well of Quanti-Blue reagent was added to all wells of the plate and the plate was incubated another 30 minutes at 37° C. The OD at 620 nm was measured on the EnVision reader (PerkinElmer). EC50 values and Hill slopes were derived from 8- or 16-point four parametric non-linear curve fittings with the Megalab software (Boehringer Ingelheim) using the OD at 620 nm.

[3] = 100 μM test compound, 3 μM target protein, Sodium Salt
[4] = 100 μM test compound, 3 μM target protein

Compound | hSTING Tm shift [1, 3] | EC50 ([2]; Sodium Salt) | binding to human STING compared to the other diastereomer(s) of the same Example [1] | thermal shift compared to ribose Example 5/Compound 23 in WO 2016/145102 [1] | hSTING Tm shift [1, 4] | ΔTm at 100 µM ([1]; 100 μM test compound, 3 μM target protein, read-out: hSTING Tm shift) | EC50 [2]
Cyclic (LNA-guanosine-(3′→5′)-phosphorothioate-2′-F-2′-deoxyadenosine-(3′→5′)-phosphorothioate), Sodium Salt [Example 3.2] | 22.4 °C | 0.07 µM |  |  |  |  | 
Cyclic (LNA-guanosine-(3′→5′)-phosphorothioate-2′-F-2′-deoxyadenosine-(3′→5′)-phosphorothioate), Sodium Salt [Example 3.1] | 30.7 °C | 0.15 µM | improved binding to human STING as compared to other Example 3 diastereomers | significantly larger thermal shifts |  |  | 
Cyclic (LNA-adenosine-(3′→5′)-phosphorothioate-2′-F-2′-deoxyinosine-(3′→5′)-phosphorothioate), Sodium Salt [Example 4.1] | 30.0 °C | 0.17 µM | improved binding to human STING as compared to Example 4.2 | significantly larger thermal shifts |  |  | 
Cyclic (LNA-guanosine-(3′→5′)-phosphorothioate-2′-F-2′-deoxyadenosine-(3′→5′)-phosphorothioate), Sodium Salt [Example 3.3] | 21.6 °C | 0.13 µM |  |  |  |  | 
Nc1nc2c(ncn2C2OC3COP(O)(=S)OC4C(COP(O)(=S)OC3C2F)OC(n2cnc3c(N)ncnc32)C4O)c(=O)[nH]1 (centres unmarked) [Example 5 Compound 23 in WO 2016/145102, 3′3′-RR-(2′F-G)(A), reference compound] |  |  |  |  | 21.1 °C |  | 
Nc1ncnc2c1ncn2[C@@H]1O[C@@H]2COP(=O)(S)O[C@H]3[C@H]4OC[C@@]3(COP(=O)(S)O[C@H]2[C@H]1F)O[C@H]4n1cnc2c(N)ncnc21 (single isomer, unassigned) [Example 1.1, Cyclic (LNA-adenosine-(3′→5′)-phosphorothioate-2′-F-2′-deoxyadenosine-(3′→5′)-phosphorothioate)] |  |  | improved binding to human STING as compared to Example 1.2 | significantly larger thermal shifts |  | 27.6 °C | 0.11 µM
Cyclic (LNA-guanosine-(3′→5′)-phosphorothioate-2′-F-2′-deoxyadenosine-(3′→5′)-phosphorothioate), Sodium Salt [Example 3.4] | 10.9 °C | 2 µM |  |  |  |  | 
Cyclic (LNA-adenosine-(3′→5′)-phosphorothioate-2′-F-2′-deoxyguanosine-(3′→5′)-phosphorothioate), Sodium Salt [Example 2.2] | 21.8 °C | 0.05 µM |  |  |  |  | 
Nc1ncnc2c1ncn2[C@@H]1O[C@@H]2COP(=O)(S)O[C@H]3[C@H]4OC[C@@]3(COP(=O)(S)O[C@H]2[C@H]1F)O[C@H]4n1cnc2c(N)ncnc21 (single isomer, unassigned) [Example 1.2, Cyclic (LNA-adenosine-(3′→5′)-phosphorothioate-2′-F-2′-deoxyadenosine-(3′→5′)-phosphorothioate)] |  |  |  |  | 21.0 °C |  | 0.06 µM
Cyclic (LNA-adenosine-(3′→5′)-phosphorothioate-2′-F-2′-deoxyguanosine-(3′→5′)-phosphorothioate), Sodium Salt [Example 2.1] | 30.3 °C | 0.14 µM | improved binding to human STING as compared to Example 2.2 | significantly larger thermal shifts |  |  | 
Cyclic (LNA-adenosine-(3′→5′)-phosphorothioate-2′-F-2′-deoxyinosine-(3′→5′)-phosphorothioate), Sodium Salt [Example 4.2] | 21.4 °C | 0.11 µM |  |  |  |  | 
